Patent publication US9987276B2 (Celgene CAR LLC, priority 2008, dated 2018)
pIC50: −log10 of the molar value. “Also recorded” adds a separate entry of the source.

How the values were obtained:
BTK [1] = target: T1, BTK (Homo sapiens (Human), UniProt Q06187); assay: Washout experiment with I-7 and probe compound I-215 in Ramos cells; type: cell-based; settings: 0.1 μM for 1 hour
JAK3 kinase = JAK3 kinase (Homo sapiens (Human), UniProt P52333); assay: Mass spectrometry for Janus-3 kinase (JAK3); type: binding; settings: 3 hrs at 10× excess, tryptic digest
Protocol: JAK3 kinase (33 pmols; Invitrogen) was incubated with (I-7) (327 pmols) for 3 hrs at 10× excess prior to tryptic digestion. Iodoacetamide was used as the alkylating agent after compound incubation. For tryptic digests a 5 ul aliquot (5.5 pmols) was diluted with 15 ul of 0.1% TFA prior to micro C18 Zip Tipping directly onto the MALDI target using alpha cyano-4-hydroxy cinnamic acid as the matrix (5 mg/ml in 0.1% TFA:Acetonitrile 50:50).
As depicted in FIG. 11, the expected peptide ([…]) to be modified was immediately evident as the largest peak at MH+ of 1725.88. This is the mass to be expected when compound I-7, with an adduct mass of 345.16, is added to the peptide mass of 1380.70. […] There was also evidence for a number of other modified peptides, however, their signals were low.
To further verify the presence of the modified peptides with compound I-7, the peptides at MH+ of 1725.88 and 1118.55 were subjected to PSD (MS/MS) analysis. A correlational analysis with the homosapien database identified the correct peptides as being modified by I-7.
For tryptic digests the instrument was set in Reflectron mode with a pulsed extraction setting of 2200. Calibration was done using the Laser Biolabs Pep Mix standard ([…], 1296.69, 1672.92, 2093.09, 2465.20). […]

[2] = Collagen antibody induced arthritis model; type: in vivo; settings: Dose 30 mg/kg
Protocol: On day 0 baseline footpad measurements were made and animals were distributed to the experimental groups in such a way as to generate groups with no significant differences between the groups. Each animal was then inoculated intravenously with 2 mg Arthritomab monoclonal antibody cocktail. Treatment with test agents began at this time. On day 6, each animal was injected intraperitoneally with 50 μg LPS in 200 μl of sterile PBS. Footpad measurements and clinical scoring were conducted on days 6, 7, 8, 9, 10, 11, 12, 14, 18, and 21.

BTK [3] = target: T1, BTK; assay: Washout experiment with Ramos cells; type: cell-based; settings: 100 nM compound for 1 hour, then washout
Outline: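 Serum-starved Ramos cells exposed to 100 nM compound for 1 h, then washed and kept in compound-free medium, rewashed every 2 h. At timepoints, BCR stimulated with anti-human IgM for 10 min on ice; BTK activity read as PLCγ2 phosphorylation by western blot.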

BTK [4] = target: T1, BTK; assay: Omnia assay for potency assessment against BTK; type: biochemical; settings: [BTK]=5 nM, Omnia assay; read-out: BTK Inhibition (IC50)
Protocol: The modified BTK-optimized reagent conditions for the above protocol are:
[BTK]=5 nM, [ATP]=[…], [Y5-Sox]=[…] (ATP KMapp˜[…]).

PG-PS arthritis model = type: in vivo; settings: female Lewis rats, oral gavage daily through day 22
Protocol: On day 0, female Lewis rats received an intraperitoneal (IP) bolus of peptidoglycan-polysaccharide (PG-PS) in an amount of 15 μg/g rat body weight. Baseline control rats received an IP bolus of PBS. The vehicle and treatment groups were dosed via oral gavage just prior to PG-PS administration. Treatment with vehicle and compound continued each day through day 22. Maximal lateral ankle width measurements of both rear limbs were collected with a caliper throughout the study. On day 23, study was terminated and the final change in ankle swelling was calculated and compared to vehicle controls.

Erbb4 kinase domain = Erbb4 kinase domain (Homo sapiens (Human), UniProt Q15303); assay: Mass spectrometry for ERBB4; type: binding; settings: 60 minutes at 10-fold excess of compound
Protocol: Erbb4 kinase domain (Upstate) was incubated with compound for 60 minutes at 10-fold excess of compound I-4 and I-11 to protein. 1 μl aliquots of the samples (total volume of 4.24 ul) were diluted with 10 μl of 0.1% TFA prior to micro C4 ZipTipping directly onto the MALDI target using Sinapinic acid as the desorption matrix (10 mg/ml in 0.1% TFA:Acetonitrile 50:50). For intact protein mass measurement the instrument was set in Linear mode using a pulsed extraction setting of 16,952 for the myoglobin standard used to calibrate the instrument (Shimadzu Axima TOF^2).
Intact ErbB4 protein occurs at MH+ of 35850 with corresponding sinapinic (matrix) adducts occurring about 200 Da higher. A stochiometric incorporation of the test compound (I-4 and I-11) (Mw of 410 Da) produced a new mass peak which is approximately 410 Da higher (MH+ of 36260).

T1 sequence (Q06187 whole entry): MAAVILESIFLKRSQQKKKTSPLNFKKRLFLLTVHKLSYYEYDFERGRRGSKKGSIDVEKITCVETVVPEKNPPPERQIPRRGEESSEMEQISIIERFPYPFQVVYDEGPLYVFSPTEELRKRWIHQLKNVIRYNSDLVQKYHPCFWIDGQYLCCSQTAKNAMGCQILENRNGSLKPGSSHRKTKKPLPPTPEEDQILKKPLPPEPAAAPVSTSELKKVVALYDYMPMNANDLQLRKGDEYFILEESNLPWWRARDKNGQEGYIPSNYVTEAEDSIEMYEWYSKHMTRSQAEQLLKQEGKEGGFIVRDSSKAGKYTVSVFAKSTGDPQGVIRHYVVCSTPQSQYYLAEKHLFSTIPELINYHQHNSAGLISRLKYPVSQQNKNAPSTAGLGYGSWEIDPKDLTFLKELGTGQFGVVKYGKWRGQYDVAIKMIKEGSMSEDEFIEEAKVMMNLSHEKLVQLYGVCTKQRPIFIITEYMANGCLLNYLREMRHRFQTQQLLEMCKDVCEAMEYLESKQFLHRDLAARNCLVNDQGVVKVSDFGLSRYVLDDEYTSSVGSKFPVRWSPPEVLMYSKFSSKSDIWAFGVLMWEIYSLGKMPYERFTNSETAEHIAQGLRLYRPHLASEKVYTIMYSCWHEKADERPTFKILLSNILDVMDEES
Chain of JAK3 kinase (P52333 whole entry): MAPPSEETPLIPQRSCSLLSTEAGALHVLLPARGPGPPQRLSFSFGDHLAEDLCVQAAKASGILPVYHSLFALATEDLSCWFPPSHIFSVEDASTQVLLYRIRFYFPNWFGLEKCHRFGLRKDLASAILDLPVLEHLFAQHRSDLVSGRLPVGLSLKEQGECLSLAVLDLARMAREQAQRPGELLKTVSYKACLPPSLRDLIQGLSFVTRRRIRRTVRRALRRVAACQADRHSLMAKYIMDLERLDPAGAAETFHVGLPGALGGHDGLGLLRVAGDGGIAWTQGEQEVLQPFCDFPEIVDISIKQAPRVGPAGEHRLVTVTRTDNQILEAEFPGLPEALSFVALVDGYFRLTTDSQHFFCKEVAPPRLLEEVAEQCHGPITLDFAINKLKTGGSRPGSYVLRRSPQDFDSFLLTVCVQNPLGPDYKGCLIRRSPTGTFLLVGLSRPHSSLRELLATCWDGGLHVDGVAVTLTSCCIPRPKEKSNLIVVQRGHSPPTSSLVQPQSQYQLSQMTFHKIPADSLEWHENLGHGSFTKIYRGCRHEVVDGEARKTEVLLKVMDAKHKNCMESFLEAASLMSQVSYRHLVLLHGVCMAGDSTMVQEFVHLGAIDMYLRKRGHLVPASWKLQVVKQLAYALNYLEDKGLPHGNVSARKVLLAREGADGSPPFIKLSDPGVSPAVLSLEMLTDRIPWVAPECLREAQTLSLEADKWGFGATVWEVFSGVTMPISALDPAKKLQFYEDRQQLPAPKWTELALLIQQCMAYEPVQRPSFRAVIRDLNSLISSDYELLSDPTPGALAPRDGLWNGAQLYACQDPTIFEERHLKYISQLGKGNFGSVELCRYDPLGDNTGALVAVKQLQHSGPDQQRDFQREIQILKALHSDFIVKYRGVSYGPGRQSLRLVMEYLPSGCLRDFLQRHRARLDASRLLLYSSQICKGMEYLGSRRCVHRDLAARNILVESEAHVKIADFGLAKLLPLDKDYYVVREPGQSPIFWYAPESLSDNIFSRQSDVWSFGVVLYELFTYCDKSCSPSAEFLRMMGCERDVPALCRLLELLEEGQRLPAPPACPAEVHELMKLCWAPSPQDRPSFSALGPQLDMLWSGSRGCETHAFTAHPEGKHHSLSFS
Chain of Erbb4 kinase domain (Q15303 718-985): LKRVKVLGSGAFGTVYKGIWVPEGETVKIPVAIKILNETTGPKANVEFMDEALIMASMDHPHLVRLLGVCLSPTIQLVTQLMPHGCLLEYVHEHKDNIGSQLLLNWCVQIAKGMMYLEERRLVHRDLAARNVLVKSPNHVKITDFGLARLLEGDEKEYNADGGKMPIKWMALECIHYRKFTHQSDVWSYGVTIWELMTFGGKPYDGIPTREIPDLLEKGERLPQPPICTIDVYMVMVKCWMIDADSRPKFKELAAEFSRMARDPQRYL

C=CC(=O)Nc1cccc(Nc2nc(Nc3ccccc3)ncc2C)c1 [Compound I-7, N-(3-(5-methyl-2-(phenylamino)pyrimidin-4-ylamino)phenyl) acrylamide]
time BTK protein remains occupied after compound removal (BTK [1]): over 8 hours
covalent modification of JAK3 (Cys909, peptide LVMEYLPSGCLR) by mass spectrometry (JAK3 kinase): not entirely complete; also recorded: covalent modification
% inhibition foot pad swelling [2]: 83%
BTK Inhibition Type (BTK [3]): irreversible
pIC50 (BTK [4]): > 8.00
% inhibition ankle swelling (PG-PS arthritis model): 77.5%

Cc1cccc(Nc2nc(Nc3cccc(NC(=O)/C=C/CN(C)C)c3)ncc2F)c1 [Compound I-4, (E)-4-(dimethylamino)-N-(3-(5-fluoro-4-(m-tolylamino)pyrimidin-2-ylamino)phenyl)but-2-enamide]
covalent modification of ErbB4 (mass spectrometry) (Erbb4 kinase domain): covalent modification
BTK Inhibition Type (BTK [3]): irreversible
pIC50 (BTK [4]): > 8.00
